In patent US8012957B2, “Tetrahydro-1H-1,2,6-triaza-azulene cannabinoid modulators” (Janssen Pharmaceutica NV, priority 2006, dated 2011):

How the values were obtained:
cannabinoid CB1 receptor = biological target: T1, cannabinoid CB1 receptor (Homo sapiens, UniProt P21554); assay: Binding assay for CB1, [3H]-CP-55,940 displacement on membranes of transfected SK-N-MC cells; settings: for IC50: radioligand [3H]-CP-55,940 0.2 nM, calculated by linear regression; for inhibition at 0.2 µM: test concentration of 0.2 μM, read-out: Cannabinoid CB 1 Receptor Binding Inhibition (%)
T1 construct: expressed in transfected cells; host or cells: SK-N-MC cells, pcDNA3 CB-1 (human), semi-purified membrane pellet
T1 sequence (P21554 whole entry): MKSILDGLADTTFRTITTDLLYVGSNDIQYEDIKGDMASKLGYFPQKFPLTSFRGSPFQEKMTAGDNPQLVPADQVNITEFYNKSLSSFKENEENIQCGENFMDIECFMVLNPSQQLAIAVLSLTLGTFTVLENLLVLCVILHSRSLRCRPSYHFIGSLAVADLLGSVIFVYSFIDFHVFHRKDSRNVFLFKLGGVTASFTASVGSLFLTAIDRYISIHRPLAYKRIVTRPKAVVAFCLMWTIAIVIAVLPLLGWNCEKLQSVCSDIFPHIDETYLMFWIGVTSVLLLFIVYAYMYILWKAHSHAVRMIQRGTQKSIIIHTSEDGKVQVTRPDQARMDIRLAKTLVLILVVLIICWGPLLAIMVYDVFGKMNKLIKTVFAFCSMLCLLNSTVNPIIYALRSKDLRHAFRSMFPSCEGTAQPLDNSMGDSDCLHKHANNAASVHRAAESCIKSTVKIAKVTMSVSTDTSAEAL
Experimental: (§1) Binding Assay for CB1 or CB2 Agonists or Inverse Agonists
(§2) The human CB1 and CB2 receptors were stably expressed in SK-N-MC cells transfected with pcDNA3 CB-1 (human) or pcDNA3 CB-2 (human). The cells were grown in T-180 cell culture flasks under standard cell culture conditions at 37° C. in a 5% CO2 atmosphere. The cells were harvested by trysinization and homogenized in a homogenization buffer (10 mM Tris, 0.2 mM MgCl2, 5 mM KCl, with protease inhibitors aprotinin, leupeptin, pepstatin A and bacitracin) and centrifuged (2000 g). The supernatant was then centrifuged in 2M sucrose (31,300 g) to produce a semi-purified membrane pellet. The pellet was resuspended in homogenization and stored at −80° C.
(§3) On the day of the assay, the pellet was thawed on ice and diluted in assay buffer (50 mM Tris-HCl, 5 mM MgCl2, 2.5 mM EDTA, 0.5 mg/mL fatty acid free bovine serum albumin, pH 7.5). The diluted membrane pellet was added with buffer, either a test compound or vehicle standard and a the radioligand [H]^3+-CP-55,940 (0.2 nM) to the wells of a 96-well polypropylene plate. Non-specific binding was measured in wells containing WIN 55,212 (10 uM). The plate was covered and incubated for 90 minutes at 30° C. The contents were then aspirated onto a Packard Unifilter GF/C filter bottom plate prewet with 0.5% polyethyleneimine. The wells of the polypropylene plate were rinsed and aspirated seven times with a 0.9% saline-0.5% Tween 20 solution. The Unifilter plate was dried, a scintillation cocktail was added to each well and the counts representing binding were quantitated in a TopCount scintillation counter.
(§4) For compounds tested, an IC50 binding value was obtained from percent inhibition studies in which various test concentrations were used. The binding value (in μM) was calculated by linear regression.
(§5) For those compounds without an IC50 binding value, the percent inhibition (%) was obtained at a test concentration of 0.2 μM.

cannabinoid CB2 receptor = biological target: T2, cannabinoid CB2 receptor (Homo sapiens, UniProt P34972); assay: Binding assay for CB2, [3H]-CP-55,940 displacement on membranes of transfected SK-N-MC cells; settings: test concentration of 0.2 μM
T2 construct: expressed in transfected cells; host or cells: SK-N-MC cells, pcDNA3 CB-2 (human), semi-purified membrane pellet
T2 sequence (P34972 whole entry): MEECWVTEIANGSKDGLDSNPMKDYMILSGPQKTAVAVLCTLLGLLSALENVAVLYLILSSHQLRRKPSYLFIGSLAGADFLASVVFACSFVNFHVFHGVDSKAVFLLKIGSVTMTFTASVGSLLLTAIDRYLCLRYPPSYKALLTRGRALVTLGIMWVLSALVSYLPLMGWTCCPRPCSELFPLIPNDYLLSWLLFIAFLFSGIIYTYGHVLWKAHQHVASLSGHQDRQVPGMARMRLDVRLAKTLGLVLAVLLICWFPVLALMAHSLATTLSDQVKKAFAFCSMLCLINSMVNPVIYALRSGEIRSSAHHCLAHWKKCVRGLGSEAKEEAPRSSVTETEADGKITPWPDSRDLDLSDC
Experimental: as §1, §2, §3, §4, §5

SMILES	IC50 (cannabinoid CB1 receptor)	inhibition at 0.2 µM (cannabinoid CB2 receptor)	inhibition at 0.2 µM (cannabinoid CB1 receptor)
CC(NC(=O)c1nn(-c2ccc(Cl)cc2Cl)c2c1CCN(C(=O)OC(C)(C)C)C/C2=C\c1ccc(F)cc1)c1ccccc1 (stereo not drawn) [Cpd 3, (8E)-1-(2,4-dichloro-phenyl)-8-(4-fluoro-benzylidene)-3-(1-phenyl-ethylcarbamoyl)-4,5,7,8-tetrahydro-1 H-1,2,6-triaza-azulene-6-carboxylic acid tert-butyl ester]	61 nM	15%	
CC(NC(=O)c1nn(-c2ccc(Cl)cc2Cl)c2c1CCN(C(=O)OC(C)(C)C)C/C2=C\c1ccc(F)cc1)c1ccccn1 (stereo not drawn) [Cpd 4, (8E)-1-(2,4-dichloro-phenyl)-8-(4-fluoro-benzylidene)-3-(1-pyridin-2-yl-ethylcarbamoyl)-4,5,7,8-tetrahydro-1 H-1,2,6-triaza-azulene-6-carboxylic acid tert-butyl ester]	50 nM	14%	
CC(C)(C)OC(=O)N1CCc2c(C(=O)NN3CCCCC3)nn(-c3ccc(Cl)cc3Cl)c2/C(=C/c2ccc(F)cc2)C1 [Cpd 2, (8E)-1-(2,4-dichloro-phenyl)-8-(4-fluoro-benzylidene)-3-(piperidin-1-ylcarbamoyl)-4,5,7,8-tetrahydro-1H-1,2,6-triaza-azulene-6-carboxylic acid tert-butyl ester]		15%	54%
O=C(c1nn(-c2ccc(Cl)cc2Cl)c2c1CCNC/C2=C\c1ccc(F)cc1)N1CCCCC1 [Cpd 5, (8E)-[1-(2,4-dichloro-phenyl)-8-(4-fluoro-benzylidene)-1,4,5,6,7,8-hexahydro-1,2,6-triaza-azulen-3-yl]-piperidin-1-yl-methanone]		10%	16%
COC(=O)N1CCc2c(C(=O)NN3CCCCC3)nn(-c3ccc(Cl)cc3Cl)c2/C(=C/c2ccc(F)cc2)C1 [Cpd 6, (8E)-1-(2,4-dichloro-phenyl)-8-(4-fluoro-benzylidene)-3-(piperidin-1-ylcarbamoyl)-4,5,7,8-tetrahydro-1H-1,2,6-triaza-azulene-6-carboxylic acid methyl ester]		17%	39%
CC(C)(C)OC(=O)N1CCc2c(C(=O)N3CCCCC3)nn(-c3ccc(Cl)cc3Cl)c2/C(=C/c2ccc(F)cc2)C1 [Cpd 1, (8E)-1-(2,4-dichloro-phenyl)-8-(4-fluoro-benzylidene)-3-(piperidine-1-carbonyl)-4,5,7,8-tetrahydro-1 H-1,2,6-triaza-azulene-6-carboxylic acid tert-butyl ester]		6%	27%
